In one data set the test system is Ai14 mice. Description: In vivo genome editing, intravenous injection, tdTomato expression. Set-up: species or system mouse. The settings on record: day 14. As for the experimental part: Similar to the in vitro transfection study, lipidoid nanoparticles were prepared for mRNA or protein loading and in vivo delivery. Ai14 mice were housed in a temperature and humidity controlled facility with a 12 h light/dark cycle. Three mice in each group were injected (intravenously or intramuscularly) with Cre mRNA-loaded or (−30)GFP-Cre protein-loaded LNPs formulations. Organs including heart, liver, spleen, lung and kidney from all groups were collected at day 10 (intramuscular injection) or 14 (intravenous injection) after injection. The tissues were fixed overnight in 4% paraformaldehyde (PFA) and dehydrated in 30% sucrose before being froze in OCT and sectioned into 10-15 μm slices. The slices were then collected and stained with DAPI for fluorescence imaging (BZ-X Analyzer fluorescence microscopy).
Cre-loxP system and transgenic Ai14 mouse model were used in the in vivo genome editing study. […] When the Cre recombinase mediated gene reorganization occurs, the STOP cassette could be removed, resulting in the expression of fluorescent tdTomato reporter protein.
The OCholB LNPs was further investigated if they can induce successful gene editing in vivo through a systemic administration pathway. At first, Ai14 mice (n=3) were injected through tail vein (intravenous (IV) injection) with (−30)GFP-Cre protein loaded LNPs at day 1 and 5 (50 μg protein for each injection; 100 μg in total), then sacrificed at day 14 for analysis (FIG. 17C). […] The heart, liver, spleen, lung and kidney from each group were collected and analyzed. […] Like most intravenous nano-therapeutics, the (−30)GFP-Cre protein complexed OCholB nanoparticles injected through tail vein would travel first to the heart, and from there directly to the lung. The nanoparticle formulations (which may have complexed with serum proteins) could be easily trapped in the vasculature structures in the capillary bed of the lung, delaying or inhibiting the redistribution of LNPs to the liver, spleen and other organs. During the in vivo transport and redistribution process, some of the protein loaded LNPs may successfully enter into the cells in lung or spleen to induce the genome editing and tdTomato expression cascade. Degradation, aggregation and/or immune cells sequestration of the cargo protein and carrier LNPs would dramatically reduce or perhaps even prohibit genome editing events.
Next, in vivo systemic mRNA delivery using OCholB LNPs was tested using a similar intravenous injection protocol (FIG. 17C). Cre mRNA loaded 76-OCholB LNPs were injected at day 1 and day 5 (10 μg mRNA for each injection; 20 μg in total), and mice were sacrificed at day 14. All the major organs (heart, liver, spleen, lung and kidney) were collected and analyzed. […]

The nature of data set [1]: Thiol-triggered calcein release (fluorescence dequenching). The class given is physicochemical. Conditions: DTT 1 mM, 5 mM and 10 mM, 12 h incubation. As for the experimental part:
Lipidoids were fabricated into nanoparticles for all delivery applications. Briefly, lipidoids were mixed with sodium acetate buffer (25 mM, pH 5.2), sonicated for 30 min in an ultrasonic bath, followed by another 30 min of vigorous vortexing. The as-prepared blank LNPs were stored at 4° C. For Cy5-RNA/LNP, mRNA/LNP and protein/LNP complexation, blank lipidoid nanoparticles were mixed with RNA molecules or (−30)GFP-Cre protein in PBS buffer (pH 7.4) following our previously reported procedures and incubated at room temperature for another 30 min before use. Typical procedures for Nile red encapsulation are as follows: 5 μL of Nile red stock solution in acetone was added into an empty vial, which was then placed in a vacuum oven to completely remove the organic solvent. Then, a predetermined amount of blank LNP stock solution (1.0 mg/mL) was added into the vial. The mixture was sonicated for 40 min in an ultrasonic bath and stirred overnight at room temperature. The final concentration of Nile red was adjusted to 6.6×10-7 mol L-1 and 6×10-7 mol L-1 for thiol triggered release study and cell incubation, respectively, by diluting with PBS as necessary. Typical procedures for CPT and DiO/DiI FRET pair encapsulation are as follows: 100 μL of DiO/DiI stock solution in MeOH was charged into an empty vial and placed in a vacuum oven to remove the organic solvent. […]

The next data set relates to HeLa cells. Briefly: Cytotoxicity of anticancer drug loaded nanoparticles (MTT). Conditions: Dox series; 8 h of exposure, MTT after 48 h of incubation.
Setting [2] is: (−30)GFP-Cre loaded, IV day 1 and 5, 50 μg protein each.
Setting [3] is: Cre mRNA loaded, IV day 1 and 5, 10 μg mRNA each.

Bounds are passed on as bounds.

Procedure for HeLa cells: After 24 h of incubation at 37° C., 5% CO2, Dox, CPT or Oxa loaded nanoparticles were added to the cells and incubated for 8 h followed by media change. The cells were then incubated for another 40 h before cell viability analysis.
Cell viabilities of HeLa and HeLa-DsRed were measured using the standard MTT assay. In a 96-well plate, after incubating HeLa or HeLa-DsRed cells with blank or cargo-loaded nanoparticles, the MTT reagent (5 mg/mL, in 30 μL PBS buffer) was added and the cells were incubated for another 4 h at 37° C. The cell culture media was then carefully removed and 200 μL of DMSO was added to each well. The DMSO solution was then transferred into a clean 96-well plate and the absorbance at 570 nm was recorded by a microplate reader. All experiments were performed in quadruplicate.
Dose-dependent cytotoxicity was then examined.

Turning to `CC(C)CCCC(C)C1CCC2C3CC=C4CC(OC(=O)NCCSSCCOC(=O)CCN(CCC(=O)OCCSSCCNC(=O)OC5CCC6(C)C(=CCC7C6CCC6(C)C(C(C)CCCC(C)C)CCC76)C5)CCN5CCCC5)CCC4(C)C3CCC12C` (stereo not drawn) [Lipidoid 76-OCholB], the “genome editing efficacy in the spleen” value in the data set with Ai14 mice (setting [2]) is given as “Relative high genome editing efficacy”. Also, in the data set with Ai14 mice (setting [3]), the “tdTomato positive cells in the spleen” value is “significant amount of tdTomato positive cells” and the “tdTomato signals in other organs (heart, liver, lung, kidney)” value is “positive signals were not found”.
Take `CC(C)CCCC(C)C1CCC2C3CC=C4CC(OC(=O)NCCSSCCOC(=O)CCN(CCCN(C)C)CCC(=O)OCCSSCCNC(=O)OC5CCC6(C)C(=CCC7C6CCC6(C)C(C(C)CCCC(C)C)CCC76)C5)CCC4(C)C3CCC12C` (stereo not drawn) [Lipidoid 80-OCholB]: in the data set on Ai14 mice (setting [2]), the “genome editing efficacy in the lung” value was “Relative high genome editing efficacy”.
Turning to `CCN(CC)CCN(CCC(=O)OCCSSCCNC(=O)OC1CCC2(C)C(=CCC3C2CCC2(C)C(C(C)CCCC(C)C)CCC32)C1)CCC(=O)OCCSSCCNC(=O)OC1CCC2(C)C(=CCC3C2CCC2(C)C(C(C)CCCC(C)C)CCC32)C1` (stereo not drawn) [Lipidoid 75-OCholB], the “increase of calcein fluorescence intensity vs untreated and cysteine treated LNPs” value in data set [1] is listed as 4.7-6.4 folds. The “cell viability / dose-dependent cytotoxicity” value in the data set with HeLa cells is given as greater than 80%.

The record behind these values is patent US12133855B2, “Lipid-like nanocomplexes and uses thereof” (Trustees of Tufts College, priority 2018, dated 2024).
